The values that follow come from PMC9182086, “Identification of New Non-BBB Permeable Tryptophan Hydroxylase Inhibitors for Treating Obesity and Fatty Liver Disease” (Molecules, 2022).

SMILES strings stand for the structures.

One data set has as its target T1, TPH1 (Homo sapiens, UniProt P17752).
T1 construct: purchased BPS Bioscience
T1 sequence (P17752 1-444): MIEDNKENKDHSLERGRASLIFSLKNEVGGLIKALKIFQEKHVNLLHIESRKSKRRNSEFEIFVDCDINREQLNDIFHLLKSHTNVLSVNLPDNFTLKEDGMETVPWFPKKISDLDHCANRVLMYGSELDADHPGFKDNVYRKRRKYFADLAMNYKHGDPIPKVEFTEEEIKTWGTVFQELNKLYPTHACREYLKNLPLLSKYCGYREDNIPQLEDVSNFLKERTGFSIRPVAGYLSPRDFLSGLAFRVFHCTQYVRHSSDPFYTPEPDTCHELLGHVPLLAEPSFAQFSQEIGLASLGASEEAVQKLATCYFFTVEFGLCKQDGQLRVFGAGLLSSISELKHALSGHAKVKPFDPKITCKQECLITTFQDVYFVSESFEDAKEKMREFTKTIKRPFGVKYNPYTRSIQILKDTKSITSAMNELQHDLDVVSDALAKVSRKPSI
As to the kind of experiment: TPH1 enzyme inhibition, in vitro screening (BPS Bioscience kit, fluorescence). The format is biochemical. On the procedure:
Consequently, the core structure of thienopyrimidine tyrosine (derivative 6) was selected as the starting point for the synthesis, evaluating the structure-activity relationships (SAR), and optimization of TPH1 inhibitors. […]
In vitro screening was performed as described previously [PMID: 33417443]. Briefly, TPH1 enzyme activity was measured with a commercially available kit (BPS Bioscience). Compounds were dissolved in DMSO (Sigma). Then, 10 μL of the compound was dispensed into a 96-well microplate, and 40 μL of the TPH1 enzyme solution (320 ng enzyme/reaction) was added. Then, 50 μL of the TPH1 reaction solution was added, and the microplate was sealed with aluminum foil. The microplate was immediately cooled to 4 °C, gently shaken, and incubated for 4 h. After a defined time, 10 μL of the TPH1 quench solution was added. Then, the fluorescence was measured with a Flexstation3 microplate reader at 300 nm for excitation and 360 nm for emission. All experiments were performed in triplicate.

Data set [1] relates to high-fat diet (HFD) fed mice. Also on record: method as in PMID 25864946, PMID 25485911. To be noted: cited from earlier work.
The nature of another data set: PAMPA-BBB permeability. It is filed as in vitro ADME. To be noted: high permeation predicted > 4.0, low < 2.0, read-out: BBB Permeability Pe. The source says:
Based on the in vitro data, compound 18i was selected for […] the in vitro BBB permeability. Several in vitro methods and computational models have been used in drug discovery to predict the potential of a drug to penetrate the BBB [15, 16, 17, 18, 19, 20, 21]. The parallel artificial membrane permeation assay (PAMPA) was used to evaluate the BBB permeability of the selected compounds. The PAMPA-BBB assay is advantageous because it predicts passive penetration at the blood-brain barrier with high success, high throughput, low cost, and high reproducibility.
PAMPA was conducted with a […] PAMPA sandwich (pION, Inc., Billerica, MA, USA) consisting of a 96-well filter plate (0.45 μm PVDF membrane) and a 96-well polystyrene donor plate. Test compounds were prepared in 10 mM stock solution with DMSO and diluted to a working solution of 50 μM concentration using a phosphate buffered saline (PBS) buffer. To form lipid membranes in the acceptor plate, 5 μL GIT-0 lipid (pION, Inc., Billerica, MA, USA) was dropped and semi-dried on the bottom side of the 0.45 μm PVDF membrane. The donor plate was prepared by the addition of 200 μL of working solution. […] To acquire the peak area of range from 230 to 500 nm, absorbance scans of PBS, acceptor, donor, and working solution were carried out with an Epoch ELISA reader (BioTek Instruments Inc., Winooski, VT, USA). […]

Turning to `NC(Cc1ccc(Cl)cc1)C(=O)O` (stereo not shown) [pCPA, para-chlorophenylalanine, reference compound], the inhibition (in general, the change of the read-out against control, counted positive when it falls) at 1 µM at TPH1 (1 µM compound) is under 5%. Besides, the inhibition at 100 µM on TPH1 (100 µM compound) was found to be 25%. For the same molecule, in data set [1], the “Protection against diet-induced obesity (body weight gain, lipogenesis in adipose tissue)” value is “protect against diet-induced obesity in vivo”. Further, the Papp at 4 h, 50 µM in the data set “PAMPA-BBB permeability” was 1.85 ×10⁻⁶ cm/s.
